Legend:
Type in all cases: functional
[1] = Cytotoxicity against human prostate cancer cells assessed as growth inhibition at 10 uM by SRB assay; conditions: Cancer cell lines, read-out: GI
[2] = Cytotoxicity against human prostate cancer cells assessed as growth inhibition at 50 uM by SRB assay; conditions: Cancer cell lines, read-out: GI
A549 [3] = experiment: Cytotoxicity against human A549 cells assessed as growth inhibition at 10 uM by SRB assay; conditions: read-out: GI
MCF7 [4] = experiment: Cytotoxicity against human MCF7 cells assessed as growth inhibition at 10 uM by SRB assay; conditions: read-out: GI
MCF7 [5] = experiment: Cytotoxicity against human MCF7 cells assessed as growth inhibition at 50 uM by SRB assay; conditions: read-out: GI
[6] = Cytotoxicity against human IMR32 cells assessed as growth inhibition at 10 uM by SRB assay; conditions: IMR-32, read-out: GI
[7] = Cytotoxicity against human IMR32 cells assessed as growth inhibition at 50 uM by SRB assay; conditions: IMR-32, read-out: GI
HeLa [8] = experiment: Cytotoxicity against human HeLa cells assessed as growth inhibition at 50 uM by SRB assay; conditions: read-out: GI
A549 [9] = experiment: Cytotoxicity against human A549 cells assessed as growth inhibition at 50 uM by SRB assay; conditions: read-out: GI
HeLa [10] = experiment: Cytotoxicity against human HeLa cells assessed as growth inhibition at 10 uM by SRB assay; conditions: read-out: GI

Compound	inhibition of growth at 10 µM [1] [%]	inhibition of growth at 50 µM [2] [%]	inhibition of growth at 10 µM (A549 [3]) [%]	inhibition of growth at 10 µM (MCF7 [4]) [%]	inhibition of growth at 50 µM (MCF7 [5]) [%]	inhibition of growth at 10 µM [6] [%]	inhibition of growth at 50 µM [7] [%]	inhibition of growth at 50 µM (HeLa [8]) [%]	inhibition of growth at 50 µM (A549 [9]) [%]	inhibition of growth at 10 µM (HeLa [10]) [%]
CO[C@@]12[C@H](COC(N)=O)C3=C(C(=O)C(C)=C(N)C3=O)N1C[C@@H]1N[C@@H]12 [MITOMYCIN]	65									
C[C@@H]1CC[C@H]2[C@@H](C)C(OCCC#Cc3ccc(C#CCCOC4O[C@@H]5O[C@@]6(C)CC[C@H]7[C@H](C)CC[C@@H]([C@H]4C)[C@@]57OO6)cc3)O[C@@H]3O[C@@]4(C)CC[C@@H]1[C@]32OO4 (stereo partly specified)	48	55	56	26	41	11	37	24	72	20
C[C@@H]1CC[C@H]2[C@@H](C)C(=O)O[C@@H]3O[C@@]4(C)CC[C@@H]1[C@]32OO4 [ARTEMISININ]	35	40	26	25	36	24	34	66	38	51
C[C@@H]1CC[C@H]2[C@@H](C)C(OCC#Cc3ccc(C#CCOC4O[C@@H]5O[C@@]6(C)CC[C@H]7[C@H](C)CC[C@@H]([C@H]4C)[C@@]57OO6)s3)O[C@@H]3O[C@@]4(C)CC[C@@H]1[C@]32OO4 (stereo partly specified)	44	47	70	25	29	54	83	37	73	35
C[C@@H]1CC[C@H]2[C@@H](C)C(OCCC#Cc3cccc(C#CCCOC4O[C@@H]5O[C@@]6(C)CC[C@H]7[C@H](C)CC[C@@H]([C@H]4C)[C@@]57OO6)c3)O[C@@H]3O[C@@]4(C)CC[C@@H]1[C@]32OO4 (stereo partly specified)	45	60	60			10	30		65	
C[C@@H]1CC[C@H]2[C@@H](C)C(OCC#Cc3ccc(-c4ccc(C#CCOC5O[C@@H]6O[C@@]7(C)CC[C@H]8[C@H](C)CC[C@@H]([C@H]5C)[C@@]68OO7)cc4)cc3)O[C@@H]3O[C@@]4(C)CC[C@@H]1[C@]32OO4 (stereo partly specified)	46	68	64	30	32	34	43	57	69	47
C[C@@H]1CC[C@H]2[C@@H](C)C(OCCC#Cc3ccc(-c4ccc(C#CCCOC5O[C@@H]6O[C@@]7(C)CC[C@H]8[C@H](C)CC[C@@H]([C@H]5C)[C@@]68OO7)cc4)cc3)O[C@@H]3O[C@@]4(C)CC[C@@H]1[C@]32OO4 (stereo partly specified)	41	47	67	24	38	4	27	50	74	18
C[C@@H]1CC[C@H]2[C@@H](C)C(OCC#Cc3ccc(C#CCOC4O[C@@H]5O[C@@]6(C)CC[C@H]7[C@H](C)CC[C@@H]([C@H]4C)[C@@]57OO6)cc3)O[C@@H]3O[C@@]4(C)CC[C@@H]1[C@]32OO4 (stereo partly specified)	56	68	67	36	45	50	56	43	69	34
C[C@@H]1CC[C@H]2[C@@H](C)C(OCCC#Cc3ccc(C#CCCOC4O[C@@H]5O[C@@]6(C)CC[C@H]7[C@H](C)CC[C@@H]([C@H]4C)[C@@]57OO6)s3)O[C@@H]3O[C@@]4(C)CC[C@@H]1[C@]32OO4 (stereo partly specified)	49	53	77	31	41	26	28	52	78	51
CC(=O)O[C@H]1C(=O)[C@@]2(C)[C@H]([C@H](OC(=O)c3ccccc3)[C@]3(O)C[C@H](OC(=O)[C@H](O)[C@@H](NC(=O)c4ccccc4)c4ccccc4)C(C)=C1C3(C)C)[C@]1(OC(C)=O)CO[C@@H]1C[C@@H]2O [PACLITAXEL]			56							
C[C@@H]1CC[C@H]2[C@@H](C)C(OCC#Cc3cccc(C#CCOC4O[C@@H]5O[C@@]6(C)CC[C@H]7[C@H](C)CC[C@@H]([C@H]4C)[C@@]57OO6)c3)O[C@@H]3O[C@@]4(C)CC[C@@H]1[C@]32OO4 (stereo partly specified)	50	65	65			40	45		70	
O=c1[nH]cc(F)c(=O)[nH]1 [FLUOROURACIL]										62
COc1cccc2c1C(=O)c1c(O)c3c(c(O)c1C2=O)C[C@@](O)(C(=O)CO)C[C@@H]3O[C@H]1C[C@H](N)[C@H](O)[C@H](C)O1 [DOXORUBICIN]						69				
